Experimental findings from patent US12390437B2, “Itaconic acid derivatives and uses thereof intreating an inflammatory disease or a disease associated with an undesirable immune response” (Sitryx Therapeutics Limited, priority 2019, dated 2025) are described below.

Data set [1] deals with NRF2. Put plainly: NRF2 +/-GSH activation assay (DiscoverX PathHunter NRF2 translocation kit, U2OS cells). It counts as cell-based. Conditions: Homo sapiens, GSH condition not stated in Table 5; for Emax: U2OS, normalised to dimethyl fumarate 'High' control, read-out: NRF2 activation Emax; for EC50: U2OS PathHunter cells, 6 hours, read-out: NRF2 activation EC50. In a few lines: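 PathHunter U2OS cells, plated 24 hrs, measured NRF2 nuclear translocation by enzyme-fragment complementation luminescence after 6 hours compound exposure at 37 °C. For +GSH, compound was pre-incubated 30 minutes with GSH (6 mM working stock). EC50 from % activation normalised to dimethyl fumarate high control.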

Data set [2] deals with hepatocytes. Put plainly: Hepatocyte stability assay (mouse). It counts as in vitro ADME. Conditions: 10 μM compound, 0.5×10^6 cells/mL, 60 minutes. From the text:
(§1) Defrosted cryo-preserved hepatocytes (viability >70%) are used to determine the metabolic stability of a compound via calculation of intrinsic clearance (Clint; a measure of the removal of a compound from the liver in the absence of blood flow and cell binding). Clearance data are particularly important for in vitro work as they can be used in combination with in vivo data to predict the half-life and oral bioavailability of a drug.
(§2) The metabolic stability in hepatocytes assay involves a time-dependent reaction using both positive and negative controls. The cells must be pre-incubated at 37° C. then spiked with test compound (and positive control); samples taken at pre-determined time intervals are analysed to monitor the change in concentration of the initial drug compound over 60 minutes. A buffer incubation reaction (with no hepatocytes present) acts as a negative control and two cocktail solutions, containing compounds with known high and low clearance values (verapamil/7-hydroxycoumarin and propranolol/diltiazem), act as positive controls. • 1. The assay is run with a cell concentration of 0.5×10^6 cells/mL in Leibovitz buffer. • 2. All compounds and controls are run in duplicate. • 3. Compound concentration is 10 μM. • 4. All compounds and controls are incubated with both cells and buffer to show turnover is due to hepatic metabolism. • 5. All wells on the incubation plate will have 326.7 μL of either cells or buffer added. • 6. Prior to assay, cell and buffer-only incubation plates are preincubated for 10 mins at 37° C. • 7. The assay is initiated by adding compounds, 3.3 μL of 1 mM in 10% DMSO-90% Buffer; final DMSO concentration is 0.1%. • 8. Samples are taken at regular timepoints (0, 5, 10, 20, 40, 60 min) until 60 mins. • 9. Sample volume is 40 μL and it is added to 160 μL of crash solvent (acetonitrile with internal standard) and stored on ice. • 10. At the end of the assay, the crash plates are centrifuged at 3500 rpm for 20 mins at 4° C. • 11. 80 μL of clear supernatant is removed and mixed with 80 μL of deionised water before being analysed by LC-MS/MS.
(§3) Raw LC-MS/MS data are exported to, and analysed in, Microsoft Excel for determination of intrinsic clearance. The percentage remaining of a compound is monitored using the peak area of the initial concentration as 100%. Intrinsic clearance and half-life values are calculated using a graph of the natural log of percentage remaining versus the time of reaction in minutes. Half-life (min) and intrinsic clearance (Clint in μL min^−1 10^−6 cells) values are calculated using the gradient of the graph (the elimination rate constant, k) and Equations 1 and 2.

Data set [3] can be described thus: Hepatocyte stability assay (mouse). The data set is classed as in vitro ADME. Conditions: cryopreserved hepatocytes, 10 μM compound, 0.5×10^6 cells/mL, 60 minutes, read-out: T½.
From the text: as §1, §2, §3

The subject of data set [4] is hepatocytes. Put plainly: Hepatocyte stability assay (human). It counts as in vitro ADME. Conditions: 10 μM compound, 0.5×10^6 cells/mL, 60 minutes.
From the text: as §1, §2, §3

The nature of data set [5]: Hepatocyte stability assay (human). It counts as in vitro ADME. Particulars: cryopreserved hepatocytes, 10 μM compound, 0.5×10^6 cells/mL, 60 minutes, read-out: T½.
From the text: as §1, §2, §3

On to `C=C(CC(=O)OCCCCCC)C(=O)OCC(=O)O` [Example 94, 2-((4-(hexyloxy)-2-methylene-4-oxobutanoyl)oxy)acetic acid], for which the Emax (in general, the size of the effect at its maximum, as opposed to the concentration needed) in data set [1] is 193%. The EC50 (in general, the concentration at which the effect is half-maximal) in data set [1] was determined as 22.2 µM. Also, the “CIint (μL min^−1 10^−6 cells)” value in data set [2] amounted to 60 μL min^−1 10^−6 cells; in data set [4] it was 16 μL min^−1 10^−6 cells. Besides, the half-life at 10 μM came out at 23 min in data set [3] and 85 min in data set [5].
Take `C=C(CC(=O)O[C@@H](C)CCCCCC)C(=O)OCc1nn[nH]n1` [Example 164, (S)-1-(2H-tetrazol-5-yl)methyl 4-octan-2-yl 2-methylenesuccinate]: the Emax in data set [1] was found to be 168%. The EC50 in data set [1] came to 4.9 µM. The “CIint (μL min^−1 10^−6 cells)” value is recorded as 259 μL min^−1 10^−6 cells in data set [2] and 42 μL min^−1 10^−6 cells in data set [4]. In addition, the half-life at 10 μM came to 5 min in data set [3] and 33 min in data set [5].
On to `C=C(CC(=O)OCCCCCCCC)C(=O)OCCC(=O)O` [Example 80, 3-((2-methylene-4-(octyloxy)-4-oxobutanoyl)oxy)propanoic Acid], for which the maximal response (Emax) in data set [1] was found to be 229%. In addition, the EC50 in data set [1] was found to be 21.5 µM. Also, the “CIint (μL min^−1 10^−6 cells)” value was 158 μL min^−1 10^−6 cells in data set [2] and 243 μL min^−1 10^−6 cells in data set [4]. For the same compound, the half-life at 10 μM in data set [3] came out at 9 min; in data set [5], 6 min.
On to `C=C(CC(=O)O[C@@H](CCCCCC)C(F)(F)F)C(=O)OCC(=O)O` [Example 182, (S)-2-((2-methylene-4-oxo-4-((1,1,1-trifluorooctan-2-yl)oxy)butanoyl)oxy)acetic acid], for which the Emax in data set [1] came to 188%. For the same compound, the EC50 in data set [1] turned out to be 5.5 µM. Moreover, the “CIint (μL min^−1 10^−6 cells)” value was determined as 187 μL min^−1 10^−6 cells in data set [2] and 60 μL min^−1 10^−6 cells in data set [4]. For the same compound, the half-life at 10 μM in data set [3] came out at 9 min; in data set [5], 28 min.
For `C=C(CC(=O)O[C@@H](C)CCCCCC)C(=O)OCCC(=O)O` [Example 84, (S)-3-((2-methylene-4-(octan-2-yloxy)-4-oxobutanoyl)oxy)propanoic acid], in data set [1], the Emax was 185%. In data set [1], the EC50 is 6.3 µM. In addition, the results for the “CIint (μL min^−1 10^−6 cells)” value in data set [2] and in data set [4] were 220 μL min^−1 10^−6 cells and 86 μL min^−1 10^−6 cells, respectively. In addition, the half-life at 10 μM amounted to 6 min in data set [3] and 16 min in data set [5].
For the compound `C=C(CC(=O)O[C@@H](C)CCCCCC)C(=O)OCCc1nnn[nH]1` [Example 129, (S)-1-(2-(1H-tetrazol-5-yl)ethyl) 4-octan-2-yl 2-methylenesuccinate], the Emax in data set [1] is 178%. In data set [1], the EC50 was 5.8 µM. For the same compound, the entries for the “CIint (μL min^−1 10^−6 cells)” value in data set [2] and in data set [4] were 378 μL min^−1 10^−6 cells and 55 μL min^−1 10^−6 cells, respectively. Also, the half-life at 10 μM in data set [3] turned out to be 4 min; in data set [5], 108 min.
In the case of `C=C(CC(=O)OC1CCCCC1)C(=O)OCCC(=O)O` [Example 87, 3-((4-(cyclohexyloxy)-2-methylene-4-oxobutanoyl)oxy)propanoic acid], the Emax in data set [1] is 113%. In addition, the EC50 in data set [1] came out at 34.2 µM. Also, the “CIint (μL min^−1 10^−6 cells)” value in data set [2] amounted to 21 μL min^−1 10^−6 cells; in data set [4] it was 11 μL min^−1 10^−6 cells. The half-life at 10 μM was found to be 65 min in data set [3] and 136 min in data set [5].
`C=C(CC(=O)OC1CC2(CCC2)C1)C(=O)OCC(=O)O` [Example 96, 2-((2-methylene-4-oxo-4-(spiro[3.3]heptan-2-yloxy)butanoyl)oxy)acetic acid]: the Emax in data set [1] was 180%. The EC50 in data set [1] is 21.2 µM. In addition, the “CIint (μL min^−1 10^−6 cells)” value came out at 112 μL min^−1 10^−6 cells in data set [2] and 11 μL min^−1 10^−6 cells in data set [4]. In addition, the half-life at 10 μM in data set [3] is 12 min; in data set [5], 126 min.
In the case of `C=C(CC(=O)OCCCCCCCC)C(=O)OCC(=O)O` [Example 49, 2-((2-methylene-4-(octyloxy)-4-oxobutanoyl)oxy)acetic acid], in data set [1], the maximum response (Emax) was 232%. The half-maximal effective concentration (EC50) in data set [1] worked out at 15.8 µM. In addition, the “CIint (μL min^−1 10^−6 cells)” value was 138 μL min^−1 10^−6 cells in data set [2] and 109 μL min^−1 10^−6 cells in data set [4]. For the same compound, the half-life at 10 μM in data set [3] turned out to be 10 min; in data set [5], 13 min.
In the case of `C=C(CC(=O)O[C@@H](C)CCCCCC)C(=O)OCC(=O)O` [Example 89, (S)-2-((2-methylene-4-(octan-2-yloxy)-4-oxobutanoyl)oxy)acetic acid], the Emax in data set [1] was determined as 238%. In data set [1], the EC50 amounted to 22.4 µM. In addition, the “CIint (μL min^−1 10^−6 cells)” value in data set [2] is listed as 198 μL min^−1 10^−6 cells; in data set [4], 29 μL min^−1 10^−6 cells. In addition, the half-life at 10 μM came out at 13 min in data set [3] and 49 min in data set [5].
Turning to `C=C(CC(=O)OC1CCCCCCC1)C(=O)OCc1nnn[nH]1` [Example 134, 1-((1H-tetrazol-5-yl)methyl) 4-cyclooctyl 2-methylenesuccinate], the Emax in data set [1] amounted to 183%. For the same compound, in data set [1], the EC50 came out at 20 µM. In addition, the “CIint (μL min^−1 10^−6 cells)” value in data set [2] is listed as 256 μL min^−1 10^−6 cells; in data set [4] it was 27 μL min^−1 10^−6 cells. In addition, the half-life at 10 μM is 7 min in data set [3] and 53 min in data set [5].
